Marks after values point to notes of the source that are not given here.
Tests used:
[1] = molecular target: T1, OCT2 (SLC22A2) (Homo sapiens, UniProt O15244); assay: in vitro; settings: pH 7.4
T1 sequence (O15244 1-555): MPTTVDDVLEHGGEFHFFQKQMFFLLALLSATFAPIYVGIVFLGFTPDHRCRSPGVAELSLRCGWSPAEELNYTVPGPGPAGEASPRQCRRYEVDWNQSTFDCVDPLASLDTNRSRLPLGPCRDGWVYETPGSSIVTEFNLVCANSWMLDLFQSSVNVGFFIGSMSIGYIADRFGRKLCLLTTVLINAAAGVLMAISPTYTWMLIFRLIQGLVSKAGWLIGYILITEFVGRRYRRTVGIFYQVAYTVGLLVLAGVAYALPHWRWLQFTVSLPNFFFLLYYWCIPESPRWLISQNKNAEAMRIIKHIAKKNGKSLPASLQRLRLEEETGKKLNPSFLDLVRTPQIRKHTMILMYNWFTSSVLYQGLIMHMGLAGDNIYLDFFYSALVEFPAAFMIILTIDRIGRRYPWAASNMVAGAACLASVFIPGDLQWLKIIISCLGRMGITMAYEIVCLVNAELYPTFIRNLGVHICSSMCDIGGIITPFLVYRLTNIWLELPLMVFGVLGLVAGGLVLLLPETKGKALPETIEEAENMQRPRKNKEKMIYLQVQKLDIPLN

[2] = molecular target: T2, OCT1 (SLC22A1) (Homo sapiens, UniProt O15245); assay: Cellular uptake into OCT1-overexpressing HEK293 cells vs EV control cells (HPLC-MS/MS); settings: for uptake ratio OCT1 (transporter-overexpressing cells over EV control cells): mean (±SD, N): 2 min, HEK293
T2 sequence (O15245 1-554): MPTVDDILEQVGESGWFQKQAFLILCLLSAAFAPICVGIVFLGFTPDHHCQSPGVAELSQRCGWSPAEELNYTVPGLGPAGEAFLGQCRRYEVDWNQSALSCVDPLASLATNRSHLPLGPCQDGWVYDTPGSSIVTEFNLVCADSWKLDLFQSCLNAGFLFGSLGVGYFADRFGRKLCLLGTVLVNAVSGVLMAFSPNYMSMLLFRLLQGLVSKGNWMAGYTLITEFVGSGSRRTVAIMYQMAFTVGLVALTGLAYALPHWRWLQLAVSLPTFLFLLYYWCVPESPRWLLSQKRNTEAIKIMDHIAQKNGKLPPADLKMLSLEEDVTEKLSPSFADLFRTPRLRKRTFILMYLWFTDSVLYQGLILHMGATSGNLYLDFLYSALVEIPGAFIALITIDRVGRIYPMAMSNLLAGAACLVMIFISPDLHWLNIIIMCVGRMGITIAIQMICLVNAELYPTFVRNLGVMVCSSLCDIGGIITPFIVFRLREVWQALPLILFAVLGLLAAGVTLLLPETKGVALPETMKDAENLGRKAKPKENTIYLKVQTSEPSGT

[3] = molecular target: T1, OCT2 (SLC22A2); assay: Cellular uptake into OCT2-overexpressing HEK293 cells vs EV control cells (HPLC-MS/MS); settings: for uptake ratio OCT2 (transporter-overexpressing cells over EV control cells): mean (±SD, N): 2 min, HEK293; for K m (±SEM) / v max (±SEM): OCT2, net uptake, Michaelis–Menten
[4] = molecular target: T3, OCT3 (SLC22A3) (Homo sapiens, UniProt O75751); assay: Cellular uptake into OCT3-overexpressing HEK293 cells vs EV control cells (HPLC-MS/MS); settings: for uptake ratio OCT3 (transporter-overexpressing cells over EV control cells): mean (±SD, N): 2 min, HEK293
T3 sequence (O75751 1-556): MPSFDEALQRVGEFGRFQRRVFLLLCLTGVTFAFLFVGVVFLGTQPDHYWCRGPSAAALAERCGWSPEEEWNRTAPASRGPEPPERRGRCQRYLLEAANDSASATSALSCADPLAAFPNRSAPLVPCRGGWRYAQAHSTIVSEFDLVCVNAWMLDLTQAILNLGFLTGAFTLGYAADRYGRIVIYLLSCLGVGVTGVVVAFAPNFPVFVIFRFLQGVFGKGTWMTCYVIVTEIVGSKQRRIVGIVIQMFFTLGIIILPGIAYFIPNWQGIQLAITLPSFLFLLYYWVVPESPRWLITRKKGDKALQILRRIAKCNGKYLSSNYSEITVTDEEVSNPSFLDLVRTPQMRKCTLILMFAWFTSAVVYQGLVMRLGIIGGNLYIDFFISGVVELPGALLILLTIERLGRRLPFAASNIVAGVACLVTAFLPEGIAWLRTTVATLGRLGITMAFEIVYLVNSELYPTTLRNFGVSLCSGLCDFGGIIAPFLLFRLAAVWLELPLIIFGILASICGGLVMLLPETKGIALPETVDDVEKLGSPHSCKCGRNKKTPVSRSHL

[5] = molecular target: T4, MATE1 (SLC47A1) (Homo sapiens, UniProt Q96FL8); assay: Cellular uptake into MATE1-overexpressing HEK293 cells vs EV control cells (HPLC-MS/MS); settings: for uptake ratio MATE1 (transporter-overexpressing cells over EV control cells): mean (±SD, N): 2.5 μM substrate, 1 min, 30 mM NH4Cl preincubation, HEK293
T4 sequence (Q96FL8 1-570): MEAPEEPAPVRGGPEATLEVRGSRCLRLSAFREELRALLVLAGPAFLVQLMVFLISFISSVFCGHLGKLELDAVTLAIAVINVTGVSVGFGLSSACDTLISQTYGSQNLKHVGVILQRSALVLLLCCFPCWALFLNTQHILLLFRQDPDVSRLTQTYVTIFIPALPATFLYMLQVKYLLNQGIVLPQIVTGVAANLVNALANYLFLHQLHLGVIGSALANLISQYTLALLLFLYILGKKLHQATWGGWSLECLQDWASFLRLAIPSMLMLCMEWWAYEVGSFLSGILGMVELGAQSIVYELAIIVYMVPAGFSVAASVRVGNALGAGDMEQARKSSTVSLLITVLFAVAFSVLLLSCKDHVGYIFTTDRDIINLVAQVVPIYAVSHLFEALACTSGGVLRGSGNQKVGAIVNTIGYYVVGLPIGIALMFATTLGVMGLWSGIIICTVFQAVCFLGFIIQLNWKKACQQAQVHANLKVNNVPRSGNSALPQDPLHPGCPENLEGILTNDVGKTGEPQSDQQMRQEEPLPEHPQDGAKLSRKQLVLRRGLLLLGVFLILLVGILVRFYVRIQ

[6] = molecular target: MATE2-K (SLC47A2) (Homo sapiens, UniProt Q86VL8); assay: Cellular uptake into MATE2-K-overexpressing HEK293 cells vs EV control cells (HPLC-MS/MS); settings: for uptake ratio MATE2K (transporter-overexpressing cells over EV control cells): mean (±SD, N): 2.5 μM substrate, 1 min, 30 mM NH4Cl preincubation, HEK293
MATE2-K (SLC47A2), sequence (Q86VL8 1-566 isoform Q86VL8-3): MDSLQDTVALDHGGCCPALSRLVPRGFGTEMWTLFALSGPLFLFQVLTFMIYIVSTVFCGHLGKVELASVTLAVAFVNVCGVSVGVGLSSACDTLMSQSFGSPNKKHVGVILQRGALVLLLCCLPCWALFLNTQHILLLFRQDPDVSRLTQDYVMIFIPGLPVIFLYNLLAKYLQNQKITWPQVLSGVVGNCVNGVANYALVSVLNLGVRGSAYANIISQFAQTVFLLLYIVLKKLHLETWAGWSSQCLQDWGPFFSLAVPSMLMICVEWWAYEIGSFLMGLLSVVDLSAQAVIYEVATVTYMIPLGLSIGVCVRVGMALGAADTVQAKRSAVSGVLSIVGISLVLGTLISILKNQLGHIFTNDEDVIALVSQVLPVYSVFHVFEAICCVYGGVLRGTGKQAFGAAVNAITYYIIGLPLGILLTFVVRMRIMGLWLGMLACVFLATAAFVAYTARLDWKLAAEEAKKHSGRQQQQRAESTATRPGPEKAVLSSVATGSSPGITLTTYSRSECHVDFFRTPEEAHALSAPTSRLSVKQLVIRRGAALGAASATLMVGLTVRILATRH

[7] = uptake ratio ≥2 = notable transport

SMILES | uptake ratio OCT1 (transporter-overexpressing cells over EV control cells): mean (±SD, N) ([2]; 10 μM substrate) | uptake ratio OCT2 (transporter-overexpressing cells over EV control cells): mean (±SD, N) ([3]; 10 μM substrate) | uptake ratio OCT3 (transporter-overexpressing cells over EV control cells): mean (±SD, N) ([4]; 10 μM substrate) | uptake ratio MATE1 (transporter-overexpressing cells over EV control cells): mean (±SD, N) [5] | uptake ratio MATE2K (transporter-overexpressing cells over EV control cells): mean (±SD, N) [6] | K m (±SEM) [3] | v max (±SEM) [3] | other results
CC(C)C[C@H](N)CO [(S)-(+)-leucinol] | – | – | – | – | – | – | – | selectivity ratio at 2 min [1]: 1.2
CC(N)CN(CC(C)N)CC(C)N (centres unmarked) [tris(2-aminopropyl)amine] | - ^d | - ^d | - ^d | - ^d | - ^d | – | – | substrate activity at OCT1 (in words) [2, 7]: did not show any substrate activity; substrate activity at OCT2 (in words) [3, 7]: did not show any substrate activity; substrate activity at OCT3 (in words) [4, 7]: did not show any substrate activity; substrate activity at MATE1 (in words) [5, 7]: did not show any substrate activity; substrate activity at MATE2-K (in words) [6, 7]: did not show any substrate activity
CC[C@H](C)[C@H](N)CO [(S)-(+)-isoleucinol] | – | – | – | 1.1 (0.2, 3) | 1.0 (0.1, 3) | 116 (±59) μM | 1303 (±287) pmol/mg protein/min | uptake ratio OCT1 (transporter-overexpressing cells over EV control cells): mean (±SD, N) ([2]; 2.5 μM substrate (§)): 1.0 (0.1, 4); uptake ratio OCT2 (transporter-overexpressing cells over EV control cells): mean (±SD, N) ([3]; 2.5 μM substrate (§)): 7.6 (1.5, 4) ^b; K m (±SEM) ([3]; listed as isoleucinol): 116 µM; uptake ratio OCT3 (transporter-overexpressing cells over EV control cells): mean (±SD, N) ([4]; 2.5 μM substrate (§)): 0.9 (0.1, 4)
NCC(O)CN [1,3-diamino-2-propanol] | 1.4 (0.6, 5) | 3.7 (2.4, 3) | 1.6 (0.3, 3) | 1.1 (0.1, 3) | 0.8 (0.1, 3) | 65 (±91) μM | 110 (±56) pmol/mg protein/min | –
NCCO [ethanolamine^13C2, ethanolamine-^13C2] | 0.6 (0.3, 4) | 0.4 (0.2, 4) ^b | 1.4 (0.5, 4) | 1.2 (0.4, 4) | 1.2 (0.4, 4) | – | – | lower uptake in OCT1-transfected cells compared to EV control cells ([2]; 10 μM): 38%; uptake in OCT1-overexpressing cells as part of the uptake observed in EV control cells ([2]; discussion): approximately one-third; less uptake in OCT2-transfected cells compared to EV control cells ([3]; 10 μM, p = 0.009): 64%; uptake in OCT2-overexpressing cells as part of the uptake observed in EV control cells ([3]; discussion): two-thirds

— paper PMC12340637, “Transport of Small Aliphatic Amines by Polyspecific Solute Carriers: Deciphering Structure–Function Relationships” (ACS Pharmacology & Translational Science, 2025)
